Assay results taken from patent US20090317838A1, “DETECTION OF BACTERIAL PEPTIDOGLYCAN-LIKE COMPOUNDS” (priority 2008, published 2009).

How the values were obtained:
[1] = target: T1, NOD2 (Homo sapiens, UniProt Q9HC29); assay: NF-κB-luciferase reporter assay in HEK293T cells transfected with NOD2; format: cell-based; conditions: for response of NOD2-transfected cells to inflammatory cytokines: acts via endogenous receptors, compared with fsNOD2 cells
T1 construct: host or cells: HEK293T
Method: Human embryonic kidney HEK293T cells (American Type Culture Collection (“ATCC,”) Manassas, Va., USA) were cultured in Dulbecco's modified Eagle's medium (Invitrogen, Carlsbad, Calif., USA) supplemented with 10% fetal calf serum (“FCS”) (PAA Laboratories GmbH, Pasching, Austria). HEK293T cells were seeded into 24 well cell culture plates at a density of 10^5 cells/ml (500 μl/well) and transfected with various expression plasmids, as previously described (Girardin 2003a) (FIG. 1).
(§1) Transfection was performed as described by Girardin et al., 2003a. HEK293T cells were transfected overnight using 1% FuGENE 6 transfection reagent (Roche Diagnostics, Mannheim, Germany) with 75 ng of the reporter plasmid pNF-kB-Luc (Stratagene, La Jolla, Calif. USA) and 1 ng p-UNO-hNODt (InvivoGen, San Diego, Calif. USA) or fsNOD2 expression plasmids (Begue et al. (2006); Chamaillard et al. (2003)). The plasmid pNF-κB-Luc is a 5.7 kb cis-reporting pNF-κB-Luc plasmid comprising an NF-κB enhancer region and a firefly luciferase gene controlled by a synthetic promoter that contains direct repeats of the transcription recognition sequences for the binding sites for NF-κB (Stratagene, Carlsbad, Calif., USA). The NOD2 3020InsC frameshift mutation was introduced using the QuikChange XL site-directed mutagenesis kit (Stratagene, Carlsbad, Calif., USA). The entire coding region was verified by sequencing and the size of the encoded product was verified by immunoblotting (Girardin et al., 2003b). A total plasmid concentration of 250 ng was achieved by addition of pcDNA3.1 vector.
Following a twenty hour transfection period, 50 μl of plasma was added into the wells containing the transfected cells. Purified peptidoglycan, diluted in plasma, from S. aureus (Sigma, St. Louis, Mo., USA) and E. coli (kind gift of Dominique Mengin-Lecreulx or InviroGen, San Diego, Calif., USA) served as positive controls. After six hours of peptidoglycan stimulation, the cell supernatant was removed and the cells were lysed with 100 μl of lysis buffer (25 mM Tris-phosphate pH 8, 8 mM MgCl2, 1 mM dithiothreitol, 15% glycerol, and 1% Triton X-100). Luciferase expression was measured from a 10 μl aliquot of cell extract using a microplate luminometer (LB960 luminometer centro, Berthold Technologies, Bad Wildbad, Germany) after addition of 100 μl of substrate buffer to a final concentration of 1.8 mM luciferin and 1 mM ATP. Each measurement was performed in triplicate. The detection level of the assay is at least 0.15 ug/ml PGN, determined by adding purified PGN to healthy donor plasma.
To validate the experimental system, NF-κB activation in HEK293T cells co-transfected with pNF-κB-Luc and pUNO-hNOD2 was tested in response to stimulation with both MPD and PGN derived from S. aureus (FIG. 2). […]

[2] = target: T2, NOD2 3020InsC frameshift mutant (fsNOD2) (Homo sapiens, UniProt Q9HC29, L1007P); assay: NF-κB-luciferase reporter assay in HEK293T cells transfected with frameshift NOD2 (fsNOD2); format: cell-based; conditions: HEK293T co-transfected with pNF-κB-Luc and NOD2 3020InsC
T2 construct: expressed in transfected cells; host or cells: HEK293T
T2 sequence (Q9HC29 1-1007 L1007P): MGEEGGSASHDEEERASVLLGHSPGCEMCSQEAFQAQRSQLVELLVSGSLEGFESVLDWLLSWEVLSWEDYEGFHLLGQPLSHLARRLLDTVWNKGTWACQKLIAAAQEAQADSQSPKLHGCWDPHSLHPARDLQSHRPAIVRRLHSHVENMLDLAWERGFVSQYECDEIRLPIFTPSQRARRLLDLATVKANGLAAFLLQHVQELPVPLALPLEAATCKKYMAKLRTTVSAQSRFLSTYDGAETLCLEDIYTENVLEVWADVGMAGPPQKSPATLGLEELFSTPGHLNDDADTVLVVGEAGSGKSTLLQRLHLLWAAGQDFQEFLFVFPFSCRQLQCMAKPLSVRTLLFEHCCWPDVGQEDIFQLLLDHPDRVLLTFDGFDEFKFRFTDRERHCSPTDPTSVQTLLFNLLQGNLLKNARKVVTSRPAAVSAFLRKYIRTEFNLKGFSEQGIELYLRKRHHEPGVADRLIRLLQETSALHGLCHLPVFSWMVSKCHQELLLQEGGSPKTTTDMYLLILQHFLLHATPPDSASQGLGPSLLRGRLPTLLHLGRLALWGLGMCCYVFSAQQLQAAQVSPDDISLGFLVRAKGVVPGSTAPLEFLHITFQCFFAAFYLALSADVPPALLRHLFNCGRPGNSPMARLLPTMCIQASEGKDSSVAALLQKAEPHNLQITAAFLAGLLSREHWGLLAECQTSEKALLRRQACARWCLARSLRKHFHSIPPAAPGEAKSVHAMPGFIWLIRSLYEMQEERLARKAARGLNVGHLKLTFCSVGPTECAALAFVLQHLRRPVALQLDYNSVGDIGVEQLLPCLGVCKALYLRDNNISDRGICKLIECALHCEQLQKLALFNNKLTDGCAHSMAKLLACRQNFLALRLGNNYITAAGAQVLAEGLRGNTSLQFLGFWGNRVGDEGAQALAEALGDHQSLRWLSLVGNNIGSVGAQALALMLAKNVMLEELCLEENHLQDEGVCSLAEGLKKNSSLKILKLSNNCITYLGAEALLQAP
Method: as §1
The NOD2 3020InsC variant comprises a Leu1007-Pro substitution in the tenth leucine-rich region followed by a premature stop codon. It activates the NF-κB pathway to the same extent as wild-type NOD2 when overexpressed, but is unable to detect MDP or PGN (Girardin et al., 2003b).
The specificity of the system was checked by transfecting an expression plasmid for frameshift NOD2 (fsNOD2), a mutant unable to activate NF-κB in response to MDP (FIG. 11E).

T1 sequence (Q9HC29 whole entry): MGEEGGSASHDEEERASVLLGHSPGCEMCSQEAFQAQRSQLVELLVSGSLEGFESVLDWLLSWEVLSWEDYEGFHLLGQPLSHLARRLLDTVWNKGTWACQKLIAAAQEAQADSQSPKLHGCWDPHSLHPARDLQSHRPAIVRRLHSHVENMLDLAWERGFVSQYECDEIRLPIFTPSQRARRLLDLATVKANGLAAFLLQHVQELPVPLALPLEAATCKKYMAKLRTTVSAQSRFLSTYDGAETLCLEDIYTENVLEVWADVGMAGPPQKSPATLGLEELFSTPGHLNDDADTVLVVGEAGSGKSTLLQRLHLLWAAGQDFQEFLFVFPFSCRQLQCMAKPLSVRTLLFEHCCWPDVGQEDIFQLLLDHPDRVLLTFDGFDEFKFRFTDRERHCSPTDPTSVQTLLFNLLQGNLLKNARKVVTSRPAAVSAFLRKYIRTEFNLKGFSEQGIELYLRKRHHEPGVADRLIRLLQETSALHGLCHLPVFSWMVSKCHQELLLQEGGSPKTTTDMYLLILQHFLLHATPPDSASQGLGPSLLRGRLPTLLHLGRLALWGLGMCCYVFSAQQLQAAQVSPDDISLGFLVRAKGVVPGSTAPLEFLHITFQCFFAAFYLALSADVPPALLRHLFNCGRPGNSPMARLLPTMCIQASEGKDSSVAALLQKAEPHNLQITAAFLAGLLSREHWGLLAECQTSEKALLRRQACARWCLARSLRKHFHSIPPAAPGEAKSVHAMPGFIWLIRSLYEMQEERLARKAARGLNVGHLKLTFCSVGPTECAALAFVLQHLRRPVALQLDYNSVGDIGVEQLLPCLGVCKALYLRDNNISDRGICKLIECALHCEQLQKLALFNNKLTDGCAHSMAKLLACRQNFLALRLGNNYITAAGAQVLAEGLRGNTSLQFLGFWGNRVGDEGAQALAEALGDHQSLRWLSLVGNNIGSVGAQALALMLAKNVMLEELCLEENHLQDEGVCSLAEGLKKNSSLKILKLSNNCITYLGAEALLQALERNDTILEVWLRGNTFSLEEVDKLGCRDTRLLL

Row | Compound | response of NOD2-transfected cells to inflammatory cytokines [1] | luciferase / NF-κB response in fsNOD2-transfected cells [2] | NF-κB activation (luciferase expression) ([1]; 300 pM MDP, HEK293T co-transfected with pNF-κB-Luc and pUNO-hNOD2) | signal in NOD2 reporter system (luciferase, RLU) ([1]; 6 hours of incubation, without plasma)
1 | interleukin 1β [IL-1β] | similarly responsive | similarly responsive |  | 
2 | tumor necrosis factor-α [TNF-α] | similarly responsive | similarly responsive |  | 
3 | CC(=O)N[C@H]1C(O)O[C@H](CO)[C@@H](O)[C@@H]1O[C@H](C)C(=O)N[C@@H](C)C(=O)N[C@H](CCC(=O)O)C(N)=O (mixture of isomers) [MDP, muramyl dipeptide] |  | no increase in luciferase | induced NF-κB activation | positive signals
